According to publication PMC9884089 (Journal of Medicinal Chemistry, 2023):
Like-named read-outs stand apart in the source and are kept apart here. One block for each compound: values may come before it.

Legend:
TNKS2 [1] = details: Figure 1 ref 19; cited from earlier work
PARP15 = biological target: T1, PARP15 (Homo sapiens, UniProt Q460N3); assay: biochemical; format: biochemical
T1 construct: made in house
T1 sequence (Q460N3 1-678): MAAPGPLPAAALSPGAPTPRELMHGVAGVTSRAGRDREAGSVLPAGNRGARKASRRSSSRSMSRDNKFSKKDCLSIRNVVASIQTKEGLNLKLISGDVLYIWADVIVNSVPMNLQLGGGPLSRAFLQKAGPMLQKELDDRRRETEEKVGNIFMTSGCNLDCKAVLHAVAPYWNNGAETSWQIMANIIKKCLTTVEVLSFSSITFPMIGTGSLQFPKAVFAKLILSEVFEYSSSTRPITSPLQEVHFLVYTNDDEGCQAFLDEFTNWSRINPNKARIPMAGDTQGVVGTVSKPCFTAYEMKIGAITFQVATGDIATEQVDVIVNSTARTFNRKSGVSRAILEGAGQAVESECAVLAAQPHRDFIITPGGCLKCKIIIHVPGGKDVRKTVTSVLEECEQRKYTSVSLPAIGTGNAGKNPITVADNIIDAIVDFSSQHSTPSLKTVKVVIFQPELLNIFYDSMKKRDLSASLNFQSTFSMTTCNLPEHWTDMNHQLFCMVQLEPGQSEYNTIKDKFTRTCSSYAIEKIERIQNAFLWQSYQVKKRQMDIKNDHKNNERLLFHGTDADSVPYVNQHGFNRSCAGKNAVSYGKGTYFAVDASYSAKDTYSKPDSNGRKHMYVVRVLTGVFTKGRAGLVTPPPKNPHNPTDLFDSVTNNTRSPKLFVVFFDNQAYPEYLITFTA

PARP10 [2] = biological target: T2, PARP10 (Homo sapiens, UniProt Q53GL7); assay: biochemical; format: biochemical
T2 construct: made in house
T2 sequence (Q53GL7 1-1025): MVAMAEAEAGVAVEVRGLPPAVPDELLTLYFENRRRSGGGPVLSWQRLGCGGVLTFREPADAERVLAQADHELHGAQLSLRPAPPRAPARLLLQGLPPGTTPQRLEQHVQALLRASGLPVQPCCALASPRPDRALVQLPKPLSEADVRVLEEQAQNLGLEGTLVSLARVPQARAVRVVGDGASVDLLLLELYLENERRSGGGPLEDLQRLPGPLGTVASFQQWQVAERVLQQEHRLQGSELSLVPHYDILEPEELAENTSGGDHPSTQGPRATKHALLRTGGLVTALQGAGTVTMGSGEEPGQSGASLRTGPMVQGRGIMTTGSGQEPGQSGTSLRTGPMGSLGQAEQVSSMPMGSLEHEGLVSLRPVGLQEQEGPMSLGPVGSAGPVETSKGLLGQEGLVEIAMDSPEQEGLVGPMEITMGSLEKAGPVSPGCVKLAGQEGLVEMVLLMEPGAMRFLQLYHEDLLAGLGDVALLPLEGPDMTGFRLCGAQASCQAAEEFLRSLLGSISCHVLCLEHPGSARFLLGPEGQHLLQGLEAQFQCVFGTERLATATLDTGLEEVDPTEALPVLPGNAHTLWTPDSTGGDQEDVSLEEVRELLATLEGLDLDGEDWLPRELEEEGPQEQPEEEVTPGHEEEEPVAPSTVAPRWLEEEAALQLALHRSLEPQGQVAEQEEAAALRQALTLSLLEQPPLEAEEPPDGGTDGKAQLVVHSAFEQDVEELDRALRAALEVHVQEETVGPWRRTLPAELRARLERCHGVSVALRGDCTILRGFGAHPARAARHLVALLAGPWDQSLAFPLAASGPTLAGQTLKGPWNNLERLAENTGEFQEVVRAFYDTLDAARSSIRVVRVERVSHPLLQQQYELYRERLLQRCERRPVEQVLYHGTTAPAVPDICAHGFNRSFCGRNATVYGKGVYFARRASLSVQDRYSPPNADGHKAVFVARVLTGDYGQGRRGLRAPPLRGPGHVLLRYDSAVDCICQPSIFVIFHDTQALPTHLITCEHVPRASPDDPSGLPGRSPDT

PARP2 = biological target: T3, PARP2 (Homo sapiens, UniProt Q9UGN5); assay: biochemical; format: biochemical; details: > = less than 50% inhibition at highest concentration; ≫ = no inhibition; read-out: PARP2 IC50
T3 construct: made in house
T3 sequence (Q9UGN5 whole entry): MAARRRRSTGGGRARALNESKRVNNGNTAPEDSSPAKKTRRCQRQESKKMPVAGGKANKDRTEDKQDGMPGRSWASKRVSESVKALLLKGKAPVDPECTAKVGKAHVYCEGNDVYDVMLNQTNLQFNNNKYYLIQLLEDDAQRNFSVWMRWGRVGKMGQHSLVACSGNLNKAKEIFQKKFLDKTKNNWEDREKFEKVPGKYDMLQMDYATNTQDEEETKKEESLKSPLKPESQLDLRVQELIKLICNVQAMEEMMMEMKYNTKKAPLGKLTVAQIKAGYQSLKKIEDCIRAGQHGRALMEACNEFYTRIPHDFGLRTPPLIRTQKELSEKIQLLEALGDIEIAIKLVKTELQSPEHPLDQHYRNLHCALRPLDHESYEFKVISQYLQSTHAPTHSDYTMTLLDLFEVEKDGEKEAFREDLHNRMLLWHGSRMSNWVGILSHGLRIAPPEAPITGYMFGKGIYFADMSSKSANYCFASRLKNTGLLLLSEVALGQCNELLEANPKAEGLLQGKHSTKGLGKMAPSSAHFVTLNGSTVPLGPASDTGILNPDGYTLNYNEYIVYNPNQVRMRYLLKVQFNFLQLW

TNKS2 [3] = biological target: T4, TNKS2 (Homo sapiens, UniProt Q9H2K2); assay: biochemical; details: read-out: TNKS2 IC50; > = less than 50% inhibition at highest concentration
T4 sequence (Q9H2K2 1-1166): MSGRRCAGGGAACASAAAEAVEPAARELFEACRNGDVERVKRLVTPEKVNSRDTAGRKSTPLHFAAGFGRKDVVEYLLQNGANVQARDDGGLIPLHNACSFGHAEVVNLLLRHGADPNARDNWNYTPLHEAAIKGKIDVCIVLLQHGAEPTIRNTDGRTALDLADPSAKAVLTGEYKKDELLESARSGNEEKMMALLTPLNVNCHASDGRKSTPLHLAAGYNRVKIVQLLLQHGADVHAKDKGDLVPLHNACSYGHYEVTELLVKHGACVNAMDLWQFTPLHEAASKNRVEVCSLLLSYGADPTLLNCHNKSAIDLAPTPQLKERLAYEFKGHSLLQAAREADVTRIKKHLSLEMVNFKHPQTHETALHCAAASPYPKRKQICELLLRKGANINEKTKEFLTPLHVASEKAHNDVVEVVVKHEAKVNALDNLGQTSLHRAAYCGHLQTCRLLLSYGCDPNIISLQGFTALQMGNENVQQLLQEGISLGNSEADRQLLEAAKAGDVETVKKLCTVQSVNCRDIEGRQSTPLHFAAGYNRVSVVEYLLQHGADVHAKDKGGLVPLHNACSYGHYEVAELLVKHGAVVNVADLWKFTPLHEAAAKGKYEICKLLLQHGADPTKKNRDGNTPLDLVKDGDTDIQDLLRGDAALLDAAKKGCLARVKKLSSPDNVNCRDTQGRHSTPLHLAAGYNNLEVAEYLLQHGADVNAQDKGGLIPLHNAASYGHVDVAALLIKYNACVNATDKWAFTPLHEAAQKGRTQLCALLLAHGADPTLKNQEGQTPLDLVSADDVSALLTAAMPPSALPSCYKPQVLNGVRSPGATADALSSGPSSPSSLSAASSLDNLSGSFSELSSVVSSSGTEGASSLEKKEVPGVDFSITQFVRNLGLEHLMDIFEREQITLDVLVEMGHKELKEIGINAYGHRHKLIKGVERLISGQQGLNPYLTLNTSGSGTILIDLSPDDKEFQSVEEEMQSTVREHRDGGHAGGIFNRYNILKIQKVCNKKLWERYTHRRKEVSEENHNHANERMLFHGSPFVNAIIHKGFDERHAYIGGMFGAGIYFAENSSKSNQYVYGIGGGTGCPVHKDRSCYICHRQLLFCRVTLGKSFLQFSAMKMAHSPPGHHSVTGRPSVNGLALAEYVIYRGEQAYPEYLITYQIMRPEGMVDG
Experimental: The proteins used in Tables 1–3 were produced as described earlier. Dockerin constructs to allow enhanced activity assays for mono-ARTs (Table 4) were produced in Escherichia coli with an N-terminal maltose binding protein (MBP) and a C-terminal dockerin domain from Hungateiclostridium thermocellum Cel48s as described recently.[47]
Inhibition experiments were performed using a homogenous assay measuring NAD+ consumption.[80]−[82] Reactions were carried out in quadruplicate, and IC50 curves were fitted using sigmoidal dose response curve (four variables) in GraphPad Prism version 8.02. […] Assay conditions for PARP2, TNKS2, PARP10, and PARP15 (Tables 1–3) were recently reported.[44] The conditions for the proximity-enhanced mono-ART assays (Table 4) were also reported recently.[47] PARP6 (400 nM) inhibition was measured using the standard buffer (50 mM sodium phosphate pH 7.0) for the enhanced activity assay using 500 nM NAD^+ and 18 h incubation in r.t..

PARP7 = details: Figure 1 ref 40; cited from earlier work
PARP10 [4] = details: Figure 1 ref 35; cited from earlier work
PARP11 = details: Figure 1 ref 42; cited from earlier work
HEK293T cells = assay: Cell viability assay (colorimetric WST-1); format: cell-based, human; details: HEK293T, 100, 50 and 10 μM, 24 h
Experimental: Cell viability was assessed by colorimetric WST-1 (Cellpro-Roche, Sigma-Aldrich) assay following manufacturer’s instructions. […] Also, DMSO and 10 mM hydroxyurea (Sigma) were used as internal controls for induced cell toxicity. […] Thereafter, WST-1 reagent was pipetted followed by 2 h incubation and absorbance measuring by a Tecan Infinite M1000 or a Tecan Spark (Tecan) plate reader. The assay was performed in triplicate and repeated at least three times. Data were normalized to DMSO control.

TNKS1/2 = details: Figure 1; cited from earlier work
PARP10 [5] = biological target: T2, PARP10; assay: Cellular MARylation assay (immunoblot of PARP10 auto-MARylation); format: cell-based; details: 10 μM, 16 h, HeLa cells
Experimental: Cells were lysed in RIPA lysis buffer [10 mM Tris pH 7.4; 150 mM NaCl; 1% NP-40; 1% desoxycholate; 0,1% SDS; protease inhibitor cocktail (Sigma-Aldrich) and 10 μM olaparib (Selleck Chemicals)], and lysates were analyzed via SDS-PAGE and immunoblotting using specific anti-PARP10 (Eurogentec),[93] anti-MAR/PAR (Cell Signaling, E6F6A, anti-poly/Mono-ADP-ribose antibody), and anti-α-tubulin (B 5-1-2, Sigma-Aldrich) antibodies.

[6] = standard assay (Tables 1-3), * value limited by the protein concentration used, > less than 50% inhibition, ≫ no inhibition at the concentration, read-out: PARP15 IC50

IC50 (PARP15; [6]): > 10 µM
IC50 (PARP10 [2]; standard assay (Tables 1-3), * value limited by the protein concentration used, > less than 50% inhibition, ≫ no inhibition at the concentration, read-out: PARP10 IC50): > 10 µM
IC50 (PARP2): 5.3 µM
IC50 (TNKS2 [3]): 2.5 µM
SMILES: c1ccc2c(c1)sc1nncn12 [Compound 2]

IC50 (PARP2): 0.24 µM
IC50 (TNKS2 [3]): 3.1 µM
SMILES: Oc1ccc(O)c2c1sc1nncn12 [Compound 18, [1,2,4]Triazolo[3,4-b][1,3]benzothiazol-5,8-diol]
cell toxicity (WST-1) (HEK293T cells): toxic in a dose-dependent manner

IC50 (PARP2): 4.5 µM
IC50 (TNKS2 [3]): 9.5 µM
SMILES: CC(C)c1ccc2c(c1)sc1nncn12 [Compound 6, 7-Isopropyl[1,2,4]triazolo[3,4-b][1,3]benzothiazole]
cell toxicity (WST-1) (HEK293T cells): toxic in a dose-dependent manner

inhibition of auto-MARylation of overexpressed PARP10 in cells (PARP10 [5]): did not observe a MAR-signal
SMILES: NC(=O)c1ccc(Oc2ccc(C(N)=O)cc2)cc1 [OUL35, reference compound]

IC50 (PARP15; [6]): 7.9 µM
IC50 (PARP10 [2]): > 10 µM
SMILES: COc1ccc(OC)c2c1sc1nnc(NC(=O)c3ccc(Cl)cc3)n12 [Compound 29]

Further lines, the compound ahead of its results:

SMILES: CCOc1ccc(-c2nnc([C@H]3C[C@H](NC(=O)c4cccc5c4NCCN5)C3)n2-c2ccccc2F)nc1 [OM-153]
IC50 (TNKS2 [1]): 0.002 µM

SMILES: NC(=O)c1ccc(OCC2CCC2)cc1 [OUL238]
IC50 (PARP10 [4]): 0.29 µM

SMILES: CC#Cc1ccc2c(=O)[nH]c(CSc3ncccn3)nc2c1C [ITK7]
IC50 (PARP11): 0.014 µM

SMILES: O=c1[nH]nc2c3c(cccc13)N=C(CN1Cc3ccccc3C1)N2 [E7449]
IC50 (TNKS1/2): 0.05 µM

SMILES: COc1ccc(OC)c2c1sc1nnc(SC)n12 [Compound 28]
IC50 (PARP15): > 10 µM
IC50 (PARP10 [2]): > 10 µM
